pKi: −log10 of the molar value.

Here are results for one compound from ChEMBL document CHEMBL5137083 (J Med Chem, 2022).

What all share (set-up): species or system Cell membrane
The target in experiment [1] is T1, Melatonin receptor type 1B (Homo sapiens, UniProt P49286).
T1 sequence (P49286 whole entry): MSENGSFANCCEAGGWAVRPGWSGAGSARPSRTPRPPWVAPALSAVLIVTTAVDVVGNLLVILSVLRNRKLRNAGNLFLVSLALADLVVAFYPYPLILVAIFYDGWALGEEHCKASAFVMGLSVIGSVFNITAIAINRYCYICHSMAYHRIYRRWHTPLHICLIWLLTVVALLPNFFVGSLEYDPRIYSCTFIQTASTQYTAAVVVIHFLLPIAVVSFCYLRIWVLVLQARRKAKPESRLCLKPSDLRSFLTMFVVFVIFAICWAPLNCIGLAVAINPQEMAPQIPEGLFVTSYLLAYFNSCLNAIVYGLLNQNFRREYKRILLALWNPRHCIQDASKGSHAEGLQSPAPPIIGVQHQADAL
The experiment can be described thus: Displacement of 2-[125I]iodomelatonin from human melatonin MT2 receptor stably expressing in human HEK293 cell membranes in presence of light-activated compounds by radioligand based competition binding assay.

Experiment [2] deals with T2, Melatonin receptor type 1A (Homo sapiens, UniProt P48039). The experiment can be described thus: Displacement of 2-[125I]iodomelatonin from human melatonin MT1 receptor stably expressing in human HEK293 cell membranes in presence of light-activated compounds by radioligand based competition binding assay.
T2 sequence (P48039 whole entry): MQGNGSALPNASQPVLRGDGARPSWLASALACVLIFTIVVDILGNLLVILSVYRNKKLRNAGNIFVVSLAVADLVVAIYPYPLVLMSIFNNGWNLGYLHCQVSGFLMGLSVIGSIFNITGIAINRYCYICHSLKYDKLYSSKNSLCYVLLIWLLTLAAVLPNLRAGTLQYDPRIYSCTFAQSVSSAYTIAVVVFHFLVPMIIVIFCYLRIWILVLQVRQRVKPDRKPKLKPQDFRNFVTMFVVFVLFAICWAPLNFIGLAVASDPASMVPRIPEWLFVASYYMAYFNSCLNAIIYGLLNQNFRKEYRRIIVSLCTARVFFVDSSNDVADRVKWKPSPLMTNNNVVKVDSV
Experiment [3] concerns the target T2, Melatonin receptor type 1A. The experiment can be described thus: Displacement of 2-[125I]iodomelatonin from human melatonin MT1 receptor stably expressing in human HEK293 cell membranes under dark condition by radioligand based competition binding assay.
The target in experiment [4] is T1, Melatonin receptor type 1B. The experiment can be described thus: Displacement of 2-[125I]iodomelatonin from human melatonin MT2 receptor stably expressing in human HEK293 cell membranes under dark condition by radioligand based competition binding assay.

Turning to `COc1ccc2c(c1)c(CCNC(C)=O)cn2C(=O)OCc1cc(OC)c(OC)cc1[N+](=O)[O-]`, the pKi in experiment [1] was 8.16; in experiment [2], 8.11; in experiment [3] it was 7.29; in experiment [4], 7.40.

The pKi is −log10 of the Ki, conventionally taken in molar units.
